Reference: patent US20050009834A1, “Azole compounds, process for preparation of the same and use thereof” (priority 2001, published 2005)

Experiments:
[1] = tested on: Plutella xylostella; test: insecticidal effect for Plutella xylostella (cabbage leaf dip); format: in vivo; conditions: 100 ppm, second-instar larvae, fifth day after, 24° C.
Method: 1) insecticidal effect for Plutella xylostella One 7 to 8-leave stage foliage leaf of cabbage was cut off and dipped in a pesticidal solution for a few seconds, which was prepared by dissolving 5 mg of test compound (represented by the compound Nos. in the above Examples) in 0.5 ml of acetone containing Tween 20 (trade name) and then diluting it to the prescribed concentration (100 ppm) with Dain water diluted 5000-fold. After drying the pesticidal solution, the leaf was put into an ice cream cup (180 ml), and ten second-instar larvae of Plutella xylostella were set free. The cup was left in a temperature-controlled breeding room (24° C.). On the fifth day after, the number of surviving Plutella xylostella was examined. The rate of dead pests was calculated by the following formula, and the result was shown in table 39. rate of dead pests (%)=(number of dead pests/number of test pests)×100

[2] = tested on: Tetranychus urticae; test: acaricidal effect for Tetranychus urticae (spray on string bean); format: in vivo; conditions: 500 ppm, female imagoes, survivors counted on second and seventh day after treatment, 25° C.
Method: 2) acaricidal effect for Tetranychus urticae Ten female imagoes Tetranychus urticae were set free on a string bean wherein first leaves had just developed. On the following day, the pesticidal solution, which was prepared by dissolving 5 mg of test compound (represented by the compound Nos. in the above Examples) in 0.5 ml of acetone containing Tween 20 (trade name) and then diluting it to the prescribed concentration (500 ppm) with Dain water diluted 5000-fold, was sprayed with spray gun in the amounts wherein the pesticidal solution dripped. The string bean was left in a temperature-controlled breeding room (25° C.). On the second and seventh day after treatment, the number of surviving Tetranychus urticae was examined. The rate of decrease was calculated by the following formula, and the result was shown in table 40. rate of decrease (%)=(1−(S2/(5.59×(10+(10+S1)/2+S1))))×100 • S1; the number of surviving imagoes on the second day after S2; the number of surviving imagoes on the seventh day after […]

Row | melting point | SMILES | Rate of dead pests (%) [1] | Rate of decrease (%) [2]
1 | – | Cc1nc(-c2c(F)cccc2Cl)nn1-c1ccc(C(C)Oc2ncc(C(F)(F)F)cc2Cl)cc1 (racemic) [T-267] | 100% | 99%
2 | 109 °C | Cc1nc(-c2ccccc2F)cn1-c1ccc(COc2ncc(C(F)(F)F)cc2Cl)cc1 [I-63, 1-[4-[3-chloro-5-(trifluoromethyl)pyridin-2-yloxymethyl]phenyl]-4-(2-fluorophenyl)-2-methylimidazole] | – | –
3 | – | Fc1ccccc1-c1cn(-c2ccc(COc3ncc(C(F)(F)F)cc3Cl)cc2)c(Cl)n1 [I-77] | – | 95%
4 | – | O=Cc1nc(-c2ccccc2F)cn1-c1ccc(COc2ncc(C(F)(F)F)cc2Cl)cc1 [I-82] | – | 99%
5 | – | Fc1cccc(Cl)c1-c1cc(Cl)n(-c2ccc(COc3ncc(C(F)(F)F)cc3Cl)cc2)n1 [P-21, 5-chloro-3-(2-chloro-6-fluorophenyl)-1-[4-(3-chloro-5-trifluoromethylpyridin-2-yloxymethyl)phenyl]pyrazole] | 100% | 99%
6 | – | Cc1nc(-c2c(F)cccc2Cl)nn1-c1ccc(COc2ccc(Cl)cc2)cc1 [T-3] | 100% | 98%
7 | – | Cc1nc(-c2c(F)cccc2Cl)nn1-c1ccc(COc2ccc(C(F)(F)F)cc2)cc1 [T-5] | 95% | 96%
8 | – | Cc1nc(-c2c(F)cccc2Cl)nn1-c1ccc(COc2ccc(Cl)cc2Cl)cc1 [T-9] | 100% | 99%
9 | – | Cc1nc(-c2c(F)cccc2Cl)nn1-c1ccc(COc2ccc(C(F)(F)F)cc2Cl)cc1 [T-12] | 100% | 98%
10 | – | Cc1nc(-c2c(F)cccc2Cl)nn1-c1ccc(COc2ccc(C(F)(F)F)cn2)cc1 [T-17] | 100% | –
11 | – | Cc1nc(-c2c(F)cccc2Cl)nn1-c1ccc(COc2ccc(Cl)cn2)cc1 [T-18] | 100% | 97%
12 | – | Cc1nc(-c2c(F)cccc2Cl)nn1-c1ccc(COc2ncc(Cl)cc2Cl)cc1 [T-20] | 100% | 98%
13 | – | Cc1nc(-c2c(F)cccc2Cl)nn1-c1ccc(COc2ncc(C(F)(F)F)cc2Cl)cc1 [T-21, 3-(2-chloro-6-fluorophenyl)-1-[4-(3-chloro-5-trifluoromethylpyridin-2-yloxymethyl)phenyl]-5-methyl-1H-1,2,4-triazole] | 100% | 100%
14 | – | Cc1nc(-c2c(F)cccc2Cl)nn1-c1ccc(COc2ncc(Cl)cn2)cc1 [T-24] | – | 97%
15 | – | Cc1nc(-c2c(F)cccc2Cl)nn1-c1ccc(COc2nnc(C(F)(F)F)s2)cc1 [T-25] | – | 99%
16 | – | Cc1nc(-c2c(F)cccc2Cl)nn1-c1ccc(COc2ncc(C(F)(F)F)cc2Cl)cn1 [T-28] | 100% | 98%
17 | – | Cc1nc(-c2c(F)cccc2Cl)nn1-c1ccc(COc2ncc(C(F)(F)F)cc2Cl)cc1Cl [T-30] | 100% | 99%
18 | – | Nc1nc(-c2c(F)cccc2Cl)nn1-c1ccc(COc2ncc(C(F)(F)F)cc2Cl)cc1 [T-40] | 95% | 97%
19 | – | Fc1cccc(Cl)c1-c1nc(Cl)n(-c2ccc(COc3ncc(C(F)(F)F)cc3Cl)cc2)n1 [T-43] | 100% | 100%
20 | – | COc1nc(-c2c(F)cccc2Cl)nn1-c1ccc(COc2ncc(C(F)(F)F)cc2Cl)cc1 [T-46] | 100% | 99%
21 | – | Fc1cccc(Cl)c1-c1nc(C(F)(F)F)n(-c2ccc(COc3ncc(C(F)(F)F)cc3Cl)cc2)n1 [T-47] | 100% | 100%
22 | – | CCc1nc(-c2c(F)cccc2Cl)nn1-c1ccc(COc2ncc(C(F)(F)F)cc2Cl)cc1 [T-48] | 100% | 99%
23 | – | N#Cc1nc(-c2c(F)cccc2Cl)nn1-c1ccc(COc2ncc(C(F)(F)F)cc2Cl)cc1 [T-52] | 100% | 97%
24 | – | Fc1cccc(Cl)c1-c1nc(CCl)n(-c2ccc(COc3ncc(C(F)(F)F)cc3Cl)cc2)n1 [T-53] | – | 99%
25 | – | FCc1nc(-c2c(F)cccc2Cl)nn1-c1ccc(COc2ncc(C(F)(F)F)cc2Cl)cc1 [T-54] | – | 98%
26 | – | COCc1nc(-c2c(F)cccc2Cl)nn1-c1ccc(COc2ncc(C(F)(F)F)cc2Cl)cc1 [T-56] | 100% | 98%

Row | melting point | SMILES | Rate of dead pests (%) [1] | Rate of decrease (%) [2]
27 | – | Cc1nc(-c2c(F)cccc2F)nn1-c1ccc(COc2ccc(C(F)(F)F)cn2)cc1 [T-66] | 95% | –
28 | – | Cc1cccc(C)c1-c1nc(C)n(-c2ccc(COc3ncc(C(F)(F)F)cc3Cl)cc2)n1 [T-74] | 100% | 97%
29 | – | FC(F)(F)c1cnc(OCc2ccc(-n3cnc(-c4cc(Cl)nc(Cl)c4)n3)cc2)c(Cl)c1 [T-75] | – | 99%
30 | – | Fc1cccc(F)c1-c1ncn(-c2ccc(COc3ncc(C(F)(F)F)cc3Cl)cc2)n1 [T-76] | – | 96%
31 | – | Fc1cccc(F)c1-c1nc(Cl)n(-c2ccc(COc3ncc(C(F)(F)F)cc3Cl)cc2)n1 [T-78] | 100% | 98%
32 | – | CCc1nc(-c2c(F)cccc2F)nn1-c1ccc(COc2ncc(C(F)(F)F)cc2Cl)cc1 [T-88] | 95% | 98%
33 | – | CC(C)c1nc(-c2c(F)cccc2Cl)nn1-c1ccc(COc2ncc(C(F)(F)F)cc2Cl)cc1 [T-92] | – | 98%
34 | – | Fc1cccc(Cl)c1-c1nc(C2CC2)n(-c2ccc(COc3ncc(C(F)(F)F)cc3Cl)cc2)n1 [T-93] | – | 97%
35 | – | C=Cc1nc(-c2c(F)cccc2Cl)nn1-c1ccc(COc2ncc(C(F)(F)F)cc2Cl)cc1 [T-106] | 100% | 97%
36 | – | O=Cc1nc(-c2c(F)cccc2Cl)nn1-c1ccc(COc2ncc(C(F)(F)F)cc2Cl)cc1 [T-107] | 100% | 100%
37 | – | Fc1cccc(Cl)c1-c1nc(C(F)F)n(-c2ccc(COc3ncc(C(F)(F)F)cc3Cl)cc2)n1 [T-120] | 100% | 99%
38 | – | Cc1nc(-c2cccnc2Cl)nn1-c1ccc(COc2ncc(C(F)(F)F)cc2Cl)cc1 [T-130] | – | 98%
39 | – | Cc1nc(-c2c(Cl)cc(Cl)cc2Cl)nn1-c1ccc(COc2ncc(C(F)(F)F)cc2Cl)cc1 [T-131] | – | 100%
40 | – | C#Cc1nc(-c2c(F)cccc2Cl)nn1-c1ccc(COc2ncc(C(F)(F)F)cc2Cl)cc1 [T-132] | – | 100%
41 | – | Cc1nc(-c2c(F)cccc2C(F)(F)F)nn1-c1ccc(COc2ncc(C(F)(F)F)cc2Cl)cc1 [T-133] | 95% | 99%
42 | – | Cc1nc(-c2c(F)c(F)cc(F)c2F)nn1-c1ccc(COc2ncc(C(F)(F)F)cc2Cl)cc1 [T-134] | – | 100%
43 | – | Cc1nc(-c2c(F)cc(F)cc2F)nn1-c1ccc(COc2ncc(C(F)(F)F)cc2Cl)cc1 [T-135] | – | 96%
44 | – | Cc1nc(-c2ccccc2OC(F)(F)F)nn1-c1ccc(COc2ncc(C(F)(F)F)cc2Cl)cc1 [T-136] | – | 99%
45 | – | Cc1nc(-c2c(F)ccc(Cl)c2F)nn1-c1ccc(COc2ncc(C(F)(F)F)cc2Cl)cc1 [T-137] | – | 99%
46 | – | Cc1nc(-c2c(F)ccc(F)c2Cl)nn1-c1ccc(COc2ncc(C(F)(F)F)cc2Cl)cc1 [T-138] | – | 99%
47 | – | Cc1nc(-c2c(F)cccc2Cl)nn1-c1ccc(COc2ncc(C(F)(F)F)cn2)cc1 [T-139] | – | 97%
48 | – | COc1cccc(OC)c1-c1nc(C)n(-c2ccc(COc3ncc(C(F)(F)F)cc3Cl)cc2)n1 [T-140] | – | 99%
49 | – | COC(=O)c1nc(-c2c(F)cccc2Cl)nn1-c1ccc(COc2ncc(C(F)(F)F)cc2Cl)cc1 [T-143] | – | 98%
50 | – | CC1=CN(Cc2ccc(COc3ncc(C(F)(F)F)cc3Cl)cc2)NC(c2c(F)cccc2Cl)=N1 [T-171, 3-(2-chloro-6-fluorophenyl)-1-[4-(3-chloro-5-trifluoromethyl-2-pyridyloxymethyl)phenylmethyl]-5-methyl-1H-1,2,4-triazine] | – | 99%
51 | – | Cc1nc(-c2c(F)cccc2Cl)nn1Cc1ccc(COc2ncc(C(F)(F)F)cc2Cl)cc1 [T-172] | – | 98%
52 | – | Cc1nc(-c2c(F)cccc2Cl)nn1-c1ccc(Oc2ncc(C(F)(F)F)cc2Cl)cc1 [T-264] | – | 98%
